{"source": "patent US8058332B2", "about": "“Phosphorus-sulfur FR additives and polymer systems containing same” (priority 2006, dated 2011)", "data": [{"assay_type": "physicochemical", "details": "TGA, nitrogen 60 mL/min, heating rate 10° C./min, room temperature to 600° C.", "procedure": "A useful indicator of thermal stability is a 5% weight loss temperature, which is measured by thermogravimetric analysis as follows: ˜10 milligrams of the phosphorus-sulfur FR additive is analyzed using a TA Instruments model Hi-Res TGA 2950 or equivalent device, with a 60 milliliters per minute (mL/min) flow of gaseous nitrogen and a heating rate of 10° C./min over a range of from room temperature (nominally 25° C.) to 600° C. The mass lost by the sample is monitored during the heating step, and the temperature at which the sample has lost 5% of its initial weight is designated the 5% weight loss temperature (5% WLT). This method provides a temperature at which a sample undergoes a cumulative weight loss of 5 wt %, based on initial sample weight. […] When it is to be used in a melt-processing operation with a combustible polymer, the phosphorus-sulfur FR additive should have a 5% WLT of at least 150° C.", "units": {"5% WLT": "°C"}, "values": [{"compound": "CC1(C)COP(=S)(SC/C=C/CSP2(=S)OCC(C)(C)CO2)OC1", "note": "[Example 1, 2,2′-[2-butene-1,4-diylbis(methylthio)]bis[5,5-dimethyl-1,3,2-dioxaphosphorinane]-2,2′-disulfide]", "5% WLT": 241}, {"compound": "2,2′,2″,2″′-[1,2,4,6-phenylenetetra(methylthio)]tetra[5,5-dimethyl-1,3,2-dioxaphosphorinane]-2,2′,2″,2″′-sulfide [Example 7]", "5% WLT": 281}, {"compound": "Cc1c(CSP2(=S)OCC(C)(C)CO2)c(C)c(CSP2(=S)OCC(C)(C)CO2)c(C)c1CSP1(=S)OCC(C)(C)CO1", "note": "[Example 8, 2,2′,2″-[2,4,6-trimethyl-1,3,5-phenylenetris(methylthio)]tris[5,5-dimethyl-1,3,2-dioxaphosphorinane]-2,2′,2″-disulfide]", "5% WLT": 283}, {"compound": "CC1(C)COP(=S)(SC(c2ccccc2)c2ccccc2)OC1", "note": "[Example 25, 2-[(diphenylmethyl)thio]-5,5-dimethyl-1,3,2-dioxaphosphorinane 2-sulfide]", "5% WLT": 238}, {"compound": "CC1(C)COP(=S)(SCCC(=O)NCNC(=O)CCSP2(=S)OCC(C)(C)CO2)OC1", "note": "[Example 36]", "5% WLT": 220}, {"compound": "CC1(C)COP(=O)(Cc2ccc(CSP3(=S)OCC(C)(C)CO3)cc2)OC1", "note": "[Example 28, 2-({4-[(5,5-dimethyl-2-oxido-1,3,2-dioxaphosphorinan-2-yl)methyl]benzyl}thio)-5,5-dimethyl-1,3,2-dioxaphosphorinane-2-sulfide]", "5% WLT": 257}, {"compound": "CC1(C)COP(=S)(SCP(=O)(CSP2(=S)OCC(C)(C)CO2)CSP2(=S)OCC(C)(C)CO2)OC1", "note": "[Example 16]", "5% WLT": 243}, {"compound": "CC1(C)COP(=S)(Sc2nc(SP3(=S)OCC(C)(C)CO3)nc(SP3(=S)OCC(C)(C)CO3)n2)OC1", "note": "[Example 17, 2,2′,2″-[s-triazine-2,4,6-tris(thio)]tris[(5,5-dimethyl-1,3,2-dioxaphosphorinane)-2,2′,2″-sulfide]]", "5% WLT": 249}, {"compound": "Cc1c(CSP2(=O)Oc3ccccc3-c3ccccc32)c(C)c(CSP2(=O)Oc3ccccc3-c3ccccc32)c(C)c1CSP1(=O)Oc2ccccc2-c2ccccc21", "note": "(stereo not drawn) [Example 30, 6,6′,6″-[(2,4,6-trimethylbenzene-1,3,5-triyl)tris(methylenethio)]tris(6H-dibenzo-[c, e][1,2]oxaphosphorin) 6,6′,6″-trioxide]", "5% WLT": 219}, {"compound": "CC1(C)COP(=S)(SC(c2ccccc2)c2cccc(C(SP3(=S)OCC(C)(C)CO3)c3ccccc3)c2)OC1", "note": "(stereo not drawn) [Example 37, 2,2′-{1,3-phenylenebis[(phenylmethylene)thio]}bis(5,5-dimethyl-1,3,2-dioxaphosphorinane) 2,2′-disulfide]", "5% WLT": 259}, {"compound": "O=P1(SCc2ccccc2CSP2(=O)Oc3ccccc3-c3ccccc32)Oc2ccccc2-c2ccccc21", "note": "(stereo not drawn) [Example 29, 6,6′-[1,2-phenylenebis(methylenethio)]bis(6H-dibenz[c, e][1,2]oxaphosphorin) 6,6′-dioxide]", "5% WLT": 262}, {"compound": "CC1(C)COP(=S)(N(Cc2ccccc2)P2(=S)OCC(C)(C)CO2)OC1", "note": "[Example 18, N-benzyl-N-(5,5-dimethyl-2-sulfido-1,3,2-dioxaphosphorinan-2-yl)-5,5-dimethyl-1,3,2-dioxaphosphorinan-2-amine-2-sulfide]", "5% WLT": 202}, {"compound": "CC1(C)COP(=S)(Cc2ccccc2CP2(=S)OCC(C)(C)CO2)OC1", "note": "[Example 19, [1,2-phenylenebis(methylene)]bis[5,5-dimethyl[1,3,2]dioxaphosphorinane]2,2′-disulfide]", "5% WLT": 284}, {"compound": "CC1(C)COP(=O)(SCc2ccccc2CSP2(=O)OCC(C)(C)CO2)OC1", "note": "[Example 5, 2,2′-[1,2-phenylenebis(methylthio)]bis[5,5-dimethyl-1,3,2-dioxaphosphorinane]-2,2′-dioxide]", "5% WLT": 247}, {"compound": "CC1(C)COP(=S)(SCCCCSP2(=S)OCC(C)(C)CO2)OC1", "note": "[Example 20, 2,2′-[1,4-butylbis(methylthio)]bis[5,5-dimethyl-1,3,2-dioxaphosphorinane]-2,2′-disulfide]", "5% WLT": 244}, {"compound": "CC1(C)COP(=S)(SCc2c(CSP3(=S)OCC(C)(C)CO3)c(CSP3(=S)OCC(C)(C)CO3)c(CSP3(=S)OCC(C)(C)CO3)c(CSP3(=S)OCC(C)(C)CO3)c2CSP2(=S)OCC(C)(C)CO2)OC1", "note": "[Example 33, 2,2′,2″,2″′,2″″′,2″″″-[benzene-1,2,3,4,5,6-hexaylhexakis(methylenethio)]hexakis(5,5-dimethyl-1,3,2-dioxaphosphorinane) 2,2′,2″,2″′,2′″″,2″″″-hexasulfide]", "5% WLT": 262}, {"compound": "CC1(C)COP(=S)(SCc2ccccc2CSP2(=S)OCC(C)(C)CO2)OC1", "note": "[Example 4, 2,2′-[1,2-phenylenebis(methylthio)]bis[5,5-dimethyl-1,3,2-dioxaphosphorinane]-2,2′-disulfide]", "5% WLT": 240}, {"compound": "S=P1(CC(c2ccccc2)c2ccccc2)OCC2(CO1)COP(=S)(SC(c1ccccc1)c1ccccc1)OC2", "note": "(stereo not drawn) [Example 38]", "5% WLT": 240}, {"compound": "O=P1(SC/C=C/CSP2(=O)Oc3ccccc3-c3ccccc32)Oc2ccccc2-c2ccccc21", "note": "(stereo not drawn) [Example 26]", "5% WLT": 270}, {"compound": "CCOC(=O)CC(SP1(=S)OCC(C)(C)CO1)C(=O)OCC", "note": "(stereo not drawn) [Example 23]", "5% WLT": 218}, {"compound": "CC(COCC(COCC(C)SP1(=S)OCC(C)(C)CO1)(COCC(C)SP1(=S)OCC(C)(C)CO1)COCC(C)SP1(=S)OCC(C)(C)CO1)SP1(=S)OCC(C)(C)CO1", "note": "(stereo not drawn) [Example 31]", "5% WLT": 241}, {"compound": "2,2′-{1,4-phenylenebis[(dimethylsilanediyl)ethane-2,1-diylbicyclo[2.2.1]heptane-6,2-diylthio]}bis(5,5-dimethyl-1,3,2-dioxaphosphorinane) 2,2′-disulfide [Example 27]", "5% WLT": 285}, {"compound": "CC(CCCCCCC(C)SP1(=S)OCC(C)(C)CO1)SP1(=S)OCC(C)(C)CO1", "note": "(stereo not drawn) [Example 24, 2,2′-[decane-2,9-diylbis(thio)]bis(5,5-dimethyl-1,3,2-dioxaphosphorinane)2,2′-disulfide]", "5% WLT": 239}, {"compound": "CC1(C)COP(=S)(SC2CC3CC2CC3SP2(=S)OCC(C)(C)CO2)OC1", "note": "(stereo not drawn) [Example 21, 2,2′-[bicyclo[2.2.1]heptane-2,5-diylbis(thio)]bis[5,5-dimethyl-1,3,2-dioxaphosphorinane]2,2′-disulfide]", "5% WLT": 264}]}]}
